Source: patent US20020164663A1, “Methods and compositions for detection, diagnosis and prediction of antiestrogen-resistant breast cancer” (BOARD OF REGENTS, THE UNIVERSITY OF TEXAS SYSTEM, priority 1998, published 2002)

Key:
MCF-7 tumors = MCF-7 tumors in mammary fat pads of athymic nude mice, tamoxifen treatment after removal of estrogen pellet; assay type: in vivo; conditions: athymic nude mice with MCF-7 tumors; estrogen pellets removed, treated with tamoxifen; later tumors became resistant and growth resumed
Procedure: (§1) MCF-7 tumors were inoculated into the mammary fat pads of athymic nude mice supplemented with an estrogen pellet as described previously (Osborne et al., 1985) until tumors arose. The estrogen pellets were removed and the animals were treated with tamoxifen. […] Invariably, however, after initial growth suppression, the tumors became resistant and growth resumed. Animals were sacrificed at various times to obtain cells from estrogen-stimulated (ES) tumors prior to tamoxifen treatment, from tamoxifen-sensitive (TS) tumors during tamoxifen treatment but prior to acquired resistance, and from tamoxifen-resistant (TR) tumors after tumor growth had resumed.

VEGF = experiment: cDNA expression array of MCF-7 tumors (estrogen-stimulated, tamoxifen-sensitive, tamoxifen-resistant); assay type: in vivo, human; conditions: breast cancers treated with tamoxifen in comparison with estrogen-stimulated breast cancer; FIG. 6
Procedure: as §1
(§2) RNA was prepared from these tumors (n=5 tumors per group) using RNeasy kits (Qiagen Inc., Valencia, Calif.), and mRNA was isolated on Dynabeads (Dyne, Oslo, Norway) according to manufacturer's instructions. […]
(§3) The controls, which were more difficult to quantitate reliably, were not included in the statistical analyses. […]
(§4) Principal Components Analysis (PCA) of mean-centered log-transformed data, based on the variance-covariance matrix (Tatsuoka, 1971), was then used to standardize across the three hybridizations and to extract three new axes (components P1, P2, and P3), expressed as linear combinations of the original axes (ES, TS, and TR). […]

bFGFR = experiment: as above; assay type: in vivo, human; conditions: breast cancers treated with tamoxifen in comparison with estrogen-stimulated breast cancer; FIG. 6
Procedure: as §1, §2, §3, §4

CC/C(=C(\c1ccccc1)c1ccc(OCCN(C)C)cc1)c1ccccc1 [tamoxifen]
Tumor volumes (MCF-7 tumors): declined and remained stable for several months | VEGF expression (VEGF): decreased expression | bFGFR expression (bFGFR): decreased expression
